Measurements from US8158142B2, “3-deazaadenosine prevents atherosclerosis and graft vasculopathy” (Kerckhoff-Klinik Gesellschaft mit beschrankter Haftung, priority 1998, dated 2012).

Columns and labels:
CD11b-positive monocytes = experiment: Counting of CD11b-positive monocytes in aortic sections; format: in vivo, mouse
Protocol: (§1) Serial cryostate sections (8 μm) from the following 3 parts of the ascending aorta were chosen: 8-32 μm, 120-144 μm and 240-264 μm distal to the aortic sinus. The frozen sections were fixed in ice-cold acetone and dried for 10 minutes. Sections were then incubated for 10 minutes in a 1:1000 dilution of mouse serum (Sigma, St. Louis, Mo., USA). After rinsing with RPMI 1640 (Life Technologies, Paisley, Scotland), the sections were incubated for 40 minutes at room temperature with a 1:100 dilution of a monoclonal rat anti-mouse antibody against ICAM-1 (CF54) or VCAM-1 (CD106, Dianova GmbH, Hamburg, Germany). Detection of monocytes/macropheges was performed using monoclonal rat anti-mouse antibody CD11 b (MAC-1) (Serotec Ltd., Oxford, England).
(§2) After additional washing steps with TRIS buffer (USB, Cleveland, Ohio, USA) and incubation with a secondary antibody (AffiniPureMouse anti-ret IgG, Dianova, Germany) (1:400) for 10 minutes, followed by incubation with a linking antibody (Dualsystem-Brückenantikörper; Dianova, Hamburg, Germany) (1:600) for 10 minutes, the sections were incubated with an alkaline phosphatase anti-alkaline phosphatese complex (APAPP) (1:50; Dianova, Hamburg, Germany) for 30 minutes. The development of the sections was performed in neufuchsin developer solution. Sections were finally counterstained with hemalaun (Merck, Darmstadt, Germany) for 10 seconds. Control sections were treated with linking secondary antibody and APAAP complex only.
(§3) The intensity of staining with ICAM-1 and VCAM-1 was scored from 1 to 4 as follows: score 1=no staining, score 2=weak staining, score 3=moderate staining and score 4=strong staining of the vascular cells. The number of CD11b-positive cells was counted in each section, and the localization of the cells was classified as adherent to the wall, or localized in the intima or in the media.

ICAM-1 [1] = experiment: Immunohistochemical staining of ICAM-1 in ascending aorta (APAAP method); format: in vivo, mouse; conditions: for Endothelial expression of ICAM-1 in the aorta (words): mice on atherogenic diet treated with c^3Ado, FIG. 4
Protocol: as §1, §2, §3

ICAM-1 [2] = experiment: Immunohistochemical analysis of ICAM-1 in transplanted hearts; format: in vivo, rat; conditions: heart allograft, day 120
Protocol: (§4) 3-Deazaadenosine was orally administered by mixing into the regular food at a final concentration of 0.04 mg/g, according to a daily oral dose of 10 mg/kg c3Ado per animal, in addition to or in absence of cyclosporine (0.2 mg/kg body weight) to Lewis rats which received heterotopically transplanted hearts from Fisher rats. For a third control group, only cyclosporine was administered daily to the other allograft recipients. All animals got a standard diet over the whole study period. Allografts were harvested on day 120, cardiac graft beat was assessed by daily palpation, and the complete cessation of the graft beat was interpreted as rejection. All of the rats accepted cardiac allografts without any further treatment for the duration of observation.
(§5) For immunohistochemical analysis of VCAM-1 and ICAM-1. two complete transverse sections of the transplanted heart approximately 3 mm in thickness were obtained and stored in optimum cutting temperature compound. Serial sections were cut and dipped in cold acetone for 10 minutes. The staining procedures were performed as described previously. The expression of the adhesion molecules was scored on the basis of endothelial cells and smooth muscle cells of epicardial arteries and intramyocardial aterioles. Analysis was done semiquantitatively by scoring the intensity of the staining and counting of the number of stained cells.

[3] = Total plasma cholesterol levels (CHOD-PAP method); format: in vivo, mouse; conditions: atherogenic diet + c^3Ado 10 mg/kg/day oral, mean ± SEM
Protocol: Blood was collected via the tail vein from all mice after overnight fasting prior to initiation of the experiment, after 35 days feeding the different diets, and at time of death. Total plasma cholesterol levels were determined using the CHOD-PAP method (Boehringer Mannheim, Germany) as described previously (32).

female C57BL/J6 mice = experiment: Quantification of atherosclerotic lesions and neointimal proliferation in the ascending aorta of mice on atherogenic diet; format: in vivo, mouse; conditions: for NI/M Ratio (neointimal to medial area ratio): mean ± SEM, 3 sections per animal
Excerpt: (§6) Six to eight week old female C57BL/J6 mice (Charles Rivers Wiga, Sulzfeld, Germany) with an average body weight of 20 g were randomly divided into three groups:
Group 1: control animals (n=9) maintained on a normal mouse diet (Altromin, Standard Diet; Lage, Germany).
Group 2: nine animals receiving an atherogenic diet based on normal mouse chow but differing in total fat content (10% vs. 5%), protein content (15.4% vs. 22%) and cholesterol content (1% vs. 0%). The total energy was 3790 vs. 3000 kcal/kg.
Group 3: nine animals on an atherogenic diet as described above, and 3-deazaadenosine (c^3Ado) (Southern Research, Birmingham, Ala., USA) mixed into the food at a final concentration of 0.04 mg/g, according to a daily oral dose of 10 mg/kg c^3Ado per animal.
(§7) The average intake of food for each animal was 5.2 g per day. Food and water were replenished every 2 days, and the volumes consumed for each cage were recorded. The mice were kept in accordance with standard animal care requirements and were maintained on a 12 hour light-dark cycle with autoclaved water in a temperature-controlled environment. All animals remained healthy during the experimental period. After 9 weeks, mice were sacrificed by inhalation of trichlormethane. The heart and the ascending aorta were removed and rinsed with PBS DULBECCO'S (Life Technologies, Paisley, Scotland). The lower half of the heart was transected along a line between the tips of the atria to obtain a base for the emerging ascending aorta. This procedure allowed an exact vertical embedding of the aorta in Tissue-Tek (Miles, USA) for optimal plane cross sections. The sections were frozen in liquid nitrogen and stored at −80° C. until further study.
A modification of the method described by Paigen at el. (29) was used to evaluate aortic lesion formation. The frozen tissue blocks were placed on a cryotome, and 8 μm serial sections of the ascending aorta were collected on coated glass slides until we were able to locate the most cranial portion of the aortic sinus by examining unstained sections. Once this section (No.1) was identified, the cranial 35 sections, covering 280 μm of the ascending aorta, were placed on separate slides for further evaluation. Every fifth section of the first 280 μm of the ascending aorta was stained with oil red O (Riedel de Haen, Germany) and counterstained with hemalaun (Merck, Darmstadt, Germany) end elastic van Gieson (Chrome-Gesellsohaft, Schmid GmbH, Köngen, Germany). Lesion area as well as intimal and medial area were blindly determined using a video-computer aided microscopy planimetry system (Zeiss, Oberkochen, Germany; Video Camera 3 CCD,
Sony; 40× lens magnification; IBAS-2 with IBAS Version 2.0 Standard, Kontron, München, Germany).
The number of lesions was counted as described previously by reviewing every fifth section. […] The number of lesions in each cross section was also counted. Size of the lesions was determined as length of lesion along the luminal aortic perimeter which was related to the total luminal aortic perimeter in the section.
The extent of neointimal proliferation was quantified by measuring the area (μm^2) of the neointima and the media in each ascending aorta from 3 sections (No.10, 20 and 30). In each section four sectors (at 0°, 90°; 180° and 270°) of the vessel wall were analyzed in a defined window of 63 μm×63 μm to measure neointimal area enclosed by the endothelial layer and internal elastic lamina and external elastic lamina. Ratio of neointimal to medial are ratio (NI/M) was averaged for each animal.

VCAM-1 [4] = experiment: Immunohistochemical analysis of VCAM-1 in transplanted hearts; format: in vivo, rat; conditions: heart allograft, day 120
Protocol: as §4, §5

endothelial cells = conditions: in vitro, via selective inhibition of ICAM-1 synthesis; cited from earlier work
Body weight development = format: in vivo, mouse; conditions: day 65, atherogenic diet + c^3Ado 10 mg/kg/day oral, mean ± SEM, n = 9
Protocol: as §6, §7

VCAM-1 [5] = experiment: Immunohistochemical staining of VCAM-1 in ascending aorta (APAAP method); format: in vivo, mouse; conditions: for Endothelial expression of VCAM-1 in the aorta (words): mice on atherogenic diet treated with c^3Ado, FIG. 4
Protocol: as §1, §2, §3

[6] = system: Lewis rats which received heterotopically transplanted hearts from Fisher rats; experiment: Graft vasculopathy / graft atherosclerosis (intimal thickening) in transplanted hearts; format: in vivo, rat; conditions: after 120 days
Protocol: as §4
Every complete cross-section of the traceable arteries was calculated. The sections were reviewed by two independent reviewers masked to the status of the slides, and histologic changes were assessed semiquantitatively. The changes of intimal thickening were scored as mild (score 1, <25% occlusion of the lumen) when the intima was readily discernible, or as moderate (score 2, 25-50% occlusion) to severe (score 3, >50% occlusion).

monocyte = conditions: cited from earlier work
[7] = molecular target: adenosylhomocysteine hydrolase (Homo sapiens, UniProt P23526); conditions: cited from earlier work
[8] = system: Lewis rats which received heterotopically transplanted hearts from Fisher rats; experiment: Heterotopic heart allograft survival and rejection (Fisher to Lewis rats); format: in vivo, rat
Protocol: as §4, with “rejection.” for “rejection. All of the rats accepted cardiac allografts without any further treatment for the duration of observation.”

[9] = group 3, atherogenic diet + c^3Ado
[10] = score 1 = no staining to 4 = strong staining, endothelial, ascending aorta, 9 weeks, mean ± SEM
[11] = mean ± SEM out of 3 sections per animal, 9 weeks atherogenic diet + c^3Ado

adenosylhomocysteine hydrolase, sequence (P23526 whole entry): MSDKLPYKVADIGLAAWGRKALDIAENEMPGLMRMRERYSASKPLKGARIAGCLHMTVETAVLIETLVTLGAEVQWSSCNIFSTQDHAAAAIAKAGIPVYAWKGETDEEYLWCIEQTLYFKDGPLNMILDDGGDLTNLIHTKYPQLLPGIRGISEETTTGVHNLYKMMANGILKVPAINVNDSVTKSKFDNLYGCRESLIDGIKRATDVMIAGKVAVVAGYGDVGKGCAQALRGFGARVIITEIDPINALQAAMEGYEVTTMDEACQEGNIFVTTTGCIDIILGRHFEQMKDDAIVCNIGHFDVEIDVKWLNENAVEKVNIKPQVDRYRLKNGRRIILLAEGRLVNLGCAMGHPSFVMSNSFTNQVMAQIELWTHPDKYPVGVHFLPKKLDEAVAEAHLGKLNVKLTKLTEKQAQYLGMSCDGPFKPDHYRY

## Nc1nccc2c1ncn2[C@@H]1O[C@H](CO)[C@@H](O)[C@H]1O [c^3Ado, 3-deazaadenosine]
CD11b-positive monocytes; [9]
  Adherent CD11b-positive cells on the luminal surface: only a few adherent CD11b-positive cells
  CD11b-positive monocytic cells within the intima: no monocytic cells within the intima
CD11b-positive monocytes; mean ± SEM per section, 3 defined sections per animal, first of two columns with the same head (title: endothelial monocytes)
  Amount of intimal monocytes (first column of this head): 0.5 ± 0.2
CD11b-positive monocytes; mean ± SEM per section, 3 defined sections per animal, second of two columns with the same head
  Amount of intimal monocytes (second column of this head): 0 ± 0
ICAM-1 [1]
  Endothelial expression of ICAM-1 in the aorta (words): completely absent
ICAM-1 [1]; listed as 3-deazaadenosine
  Endothelial expression of ICAM-1 in the aorta (words): no endothelial expression
ICAM-1 [1]; [10]
  ICAM-1 expression score: 1.0 ± 0
ICAM-1 [2]
  ICAM-1 expression in the neointima of transplanted hearts: almost no expression
[3]; day 35, plasma
  Total cholesterol day 35: 410 ± 19 mg/dL
[3]; day 65, plasma
  Total cholesterol day 65: 475 ± 10 mg/dL
Female C57BL/J6 mice; fatty streak lesions, mean ± SEM from 7 sections per animal
  Number of lesions: 0 ± 0
Female C57BL/J6 mice; light micrographs, 200 μm cranial to aortic valve, FIG. 3
  Neointima in aortic cross sections: absent
Female C57BL/J6 mice; [11]
  Medial Area: 62.7 ± 2.5 × × 10^3 μm^2
  Neointimal area: 0.13 ± 0.03 × × 10^3 μm^2
Female C57BL/J6 mice; 9 weeks atherogenic diet + c^3Ado
  NI/M Ratio (neointimal to medial area ratio): 0.002 ± 0.0004
Female C57BL/J6 mice; 9 weeks atherogenic diet + c^3Ado, listed as c^aAdo
  NI/M Ratio (neointimal to medial area ratio): 0.002±0.0004
Female C57BL/J6 mice; oil red O staining, 7 frozen sections per animal
  Fatty streak lesions in sections of the ascending aorta: no detectable lesions
Female C57BL/J6 mice; proximal ascending aorta, planimetric analysis, atherogenic diet + c^3Ado, p<0.001
  Neointimal area: 125±32 μm^2
Female C57BL/J6 mice; vs atherogenic diet alone, p<0.001
  Neointimal thickness as NI/M, lower than in mice on atherogenic diet without c^3Ado: 94%
VCAM-1 [4]
  VCAM-1 expression in the neointima of transplanted hearts: almost no expression
Endothelial cells
  Tumor necrosis factor-a-induced macrophage adhesion to endothelial cells: reduces
Body weight development
  Body weight day 65: 25.3 ± 0.2 g
VCAM-1 [5]
  Endothelial expression of VCAM-1 in the aorta (words): completely absent
VCAM-1 [5]; listed as 3-deazaadenosine
  Endothelial expression of VCAM-1 in the aorta (words): no endothelial expression
VCAM-1 [5]; [10]
  VCAM-1 expression score: 1.0 ± 0
[6]
  Intimal thickening of intramyocardial and epicardial arteries: almost no arterial intimal thickening
monocyte
  Monocyte chemotaxis and phagocytosis: inhibit
[7]
  Effect on adenosylhomocysteine hydrolase: suppresses
[8]; 10 mg/kg/day oral, 120 days
  Complications as a result of therapy: No complications
[8]; daily palpation, observation 120 days
  Graft survival (graft beat): kept beating for the duration of observation
[8]; heart allograft, 120 days
  Graft rejection: completely free from rejection
